Measurements: ChEMBL document CHEMBL1201862, “PubChem BioAssay data set” (2004)
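The compound was tested at five concentrations on cells cultured in 96-well plates, with a 48-hour exposure period. At the GI50, growth is halved.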 Calls of active or inactive are those of the source. No stated cut-off is given here; in the data, active = GI50 up to about 1.1 µM and inactive = higher.

Legend:
Experiment in all cases: growth of human tumour cells (NCI), 48 h
A498 = test system: A498
SF-539 = test system: SF-539
DU-145 = test system: DU-145
HOP-62 = test system: HOP-62
SK-MEL-28 = test system: SK-MEL-28
NCI-H522 = test system: NCI-H522
NCI/ADR-RES = test system: NCI/ADR-RES
HCC 2998 = test system: HCC 2998
OVCAR-4 = test system: OVCAR-4
U-251 = test system: U-251
SK-OV-3 = test system: SK-OV-3
786-0 = test system: 786-0
LOX IMVI = test system: LOX IMVI
PC-3 = test system: PC-3
MDA-MB-435 = test system: MDA-MB-435
SN12C = test system: SN12C
NCI-H23 = test system: NCI-H23
UACC-62 = test system: UACC-62
M14 = test system: M14

Row | Compound | GI50 (A498) | GI50 (SF-539) | GI50 (DU-145) | GI50 (HOP-62) | GI50 (SK-MEL-28) | GI50 (NCI-H522) | GI50 (NCI/ADR-RES) | GI50 (HCC 2998) | GI50 (OVCAR-4) | GI50 (U-251) | GI50 (SK-OV-3) | GI50 (786-0) | GI50 (LOX IMVI) | GI50 (PC-3) | GI50 (MDA-MB-435) | GI50 (SN12C) | GI50 (NCI-H23) | GI50 (UACC-62) | GI50 (M14)
1 | O=C1Nc2ccc(Br)cc2/C1=N/Nc1ccccc1[N+](=O)[O-] | 28 µM (inactive) | > 100 µM (inactive) | 12.2 µM (inactive) | 11.4 µM (inactive) | 19.7 µM (inactive) | 15.5 µM (inactive) | 15.8 µM (inactive) | 13 µM (inactive) | 14.4 µM (inactive) | 35.4 µM (inactive) | 24 µM (inactive) | 24.6 µM (inactive) | 15.2 µM (inactive) | 15.8 µM (inactive) | 21.1 µM (inactive) | 18.8 µM (inactive) | 3.56 µM (inactive) | 22.2 µM (inactive) | 13.9 µM (inactive)
2 | CC(=O)c1c2c(cc3c1CC1(C3)Cc3ccc4c(c3C1=O)CCC4)CCC2 (stereo not given) | > 100 µM (inactive) | > 100 µM (inactive) | 99.3 µM (inactive) | > 100 µM (inactive) | 57.1 µM (inactive) | 0.74 µM (active) | 2.07 µM (inactive) | 29.2 µM (inactive) | 23.9 µM (inactive) | 56.9 µM (inactive) | > 100 µM (inactive) | > 100 µM (inactive) | 14.8 µM (inactive) | 16 µM (inactive) | 8.05 µM (inactive) | 48.2 µM (inactive) | 34.9 µM (inactive) | 44.5 µM (inactive) | 43 µM (inactive)
3 | C[C@H]1C2Cc3cc(N)ccc3[C@@]1(C)CCN2CCc1ccccc1 | 29.4 µM (inactive) | 45.2 µM (inactive) | > 100 µM (inactive) | 39.5 µM (inactive) | > 100 µM (inactive) | 13.2 µM (inactive) | 42.3 µM (inactive) | 9.08 µM (inactive) | 48.2 µM (inactive) | 43.8 µM (inactive) | 24 µM (inactive) | 49.9 µM (inactive) | 20.2 µM (inactive) | 22.6 µM (inactive) | 41.9 µM (inactive) | > 100 µM (inactive) | 32.8 µM (inactive) | 45.5 µM (inactive) | 20.9 µM (inactive)
4 | NS(=O)(=O)c1ccc(NC(=O)c2ccc3nc4ccccc4c(Nc4ccc(S(N)(=O)=O)cc4)c3c2)cc1 | > 100 µM (inactive) | > 100 µM (inactive) | > 100 µM (inactive) | > 100 µM (inactive) | > 100 µM (inactive) | > 100 µM (inactive) | > 100 µM (inactive) | > 100 µM (inactive) | > 100 µM (inactive) | 62.8 µM (inactive) | > 100 µM (inactive) | > 100 µM (inactive) | > 100 µM (inactive) | > 100 µM (inactive) | > 100 µM (inactive) | > 100 µM (inactive) | > 100 µM (inactive) | > 100 µM (inactive) | > 100 µM (inactive)
5 | CC(=O)O[C@H]1[C@H](OC(C)=O)[C@@H](CN=[N+]=[N-])OCO[C@@H]1CN=[N+]=[N-] | > 100 µM (inactive) | > 100 µM (inactive) | > 100 µM (inactive) | > 100 µM (inactive) | > 100 µM (inactive) | > 100 µM (inactive) | > 100 µM (inactive) | > 100 µM (inactive) | > 100 µM (inactive) | > 100 µM (inactive) | > 100 µM (inactive) | > 100 µM (inactive) | > 100 µM (inactive) | > 100 µM (inactive) | > 100 µM (inactive) | > 100 µM (inactive) | > 100 µM (inactive) | > 100 µM (inactive) | > 100 µM (inactive)
6 | S=C(N/N=C(/c1ccccc1)c1ccccn1)N(Cc1ccccn1)Cc1ccccn1 | 0.521 µM (active) | 0.119 µM (active) | 0.564 µM (active) | 0.964 µM (active) | 1.05 µM (active) | < 0.0247 µM (active) | 0.0838 µM (active) | 1.63 µM (inactive) | 0.507 µM (active) | < 0.016 µM (active) | 0.472 µM (active) | 0.475 µM (active) | 0.0908 µM (active) | 0.0541 µM (active) | 0.841 µM (active) | < 0.01 µM (active) | 0.108 µM (active) | 0.338 µM (active) | 0.0323 µM (active)
7 | COc1ccc(/N=C2\C(=N/c3ccc(OC)cc3)N(c3ccc(N(C)C)cc3)C(=S)N2c2ccc(OC)cc2)cc1 | > 100 µM (inactive) | 0.184 µM (active) | > 100 µM (inactive) | > 64.6 µM (inactive) | > 100 µM (inactive) | > 100 µM (inactive) | > 100 µM (inactive) | > 100 µM (inactive) | > 100 µM (inactive) | – | > 100 µM (inactive) | 0.767 µM (active) | > 100 µM (inactive) | > 100 µM (inactive) | > 100 µM (inactive) | > 100 µM (inactive) | > 100 µM (inactive) | > 100 µM (inactive) | > 100 µM (inactive)
8 | CCOC(=O)/C=C(/C(=O)OCC)n1cc(C)c(=O)n(/C(=C/C(=O)OCC)C(=O)OCC)c1=O | 19.8 µM (inactive) | 8.85 µM (inactive) | 13.7 µM (inactive) | 24.8 µM (inactive) | 2.19 µM (inactive) | 0.49 µM (active) | 8.36 µM (inactive) | 9.48 µM (inactive) | 8.47 µM (inactive) | 6.93 µM (inactive) | 17.5 µM (inactive) | 1.28 µM (inactive) | 1.74 µM (inactive) | 5.22 µM (inactive) | 2.5 µM (inactive) | 2.98 µM (inactive) | 4.03 µM (inactive) | 5.97 µM (inactive) | 2.31 µM (inactive)
9 | Cc1ccnc2c1C(=O)C1=C(OC(C)(C)CC1O)C2=O (stereo not given) | 15.3 µM (inactive) | 3.41 µM (inactive) | 6.4 µM (inactive) | 3.37 µM (inactive) | 2.05 µM (inactive) | 2.9 µM (inactive) | 2.78 µM (inactive) | 3.88 µM (inactive) | 3.01 µM (inactive) | 3.34 µM (inactive) | 13.7 µM (inactive) | 4.08 µM (inactive) | 2.56 µM (inactive) | 2.91 µM (inactive) | 1.32 µM (inactive) | 3.21 µM (inactive) | 1.76 µM (inactive) | 1.71 µM (inactive) | 2.62 µM (inactive)
10 | CC(C)(C)C1=CC(=C2C=Cc3ccccc3O2)C=C(C(C)(C)C)C1=O | 4.39 µM (inactive) | 7.05 µM (inactive) | 4.71 µM (inactive) | 6.04 µM (inactive) | 6.25 µM (inactive) | 3.53 µM (inactive) | 3.81 µM (inactive) | 1.61 µM (inactive) | 2.41 µM (inactive) | 2.46 µM (inactive) | 13.6 µM (inactive) | 2.67 µM (inactive) | 3.06 µM (inactive) | 4.09 µM (inactive) | 1.75 µM (inactive) | 3.21 µM (inactive) | 4.56 µM (inactive) | 2.56 µM (inactive) | 3.55 µM (inactive)
11 | CSc1nc(C)c(CCCl)c(Cl)n1 | > 100 µM (inactive) | > 100 µM (inactive) | > 100 µM (inactive) | > 100 µM (inactive) | > 100 µM (inactive) | 20.6 µM (inactive) | > 100 µM (inactive) | > 100 µM (inactive) | > 100 µM (inactive) | > 100 µM (inactive) | > 100 µM (inactive) | > 100 µM (inactive) | 29.6 µM (inactive) | > 100 µM (inactive) | 34.1 µM (inactive) | 52.6 µM (inactive) | > 100 µM (inactive) | 89.1 µM (inactive) | 32.4 µM (inactive)
12 | CC[C@]12C=CCN3CC[C@@]4(c5cc(Br)c(OC)cc5N(C)[C@H]4[C@@](O)(C(=O)NN)[C@@H]1O)[C@@H]32 | 36.8 µM (inactive) | 30.5 µM (inactive) | > 100 µM (inactive) | > 100 µM (inactive) | 67.3 µM (inactive) | 52.2 µM (inactive) | > 100 µM (inactive) | > 100 µM (inactive) | 96.6 µM (inactive) | 52 µM (inactive) | 75.7 µM (inactive) | 57.5 µM (inactive) | 65.6 µM (inactive) | 28.1 µM (inactive) | 93.5 µM (inactive) | 76.9 µM (inactive) | 68.1 µM (inactive) | 40.7 µM (inactive) | 55.5 µM (inactive)
13 | CC[C@@]1(O)C(=O)OCc2c1cc1n(c2=O)Cc2c-1nc1ccccc1c2/C=N/NC(=O)C[N+](C)(C)C | 7.76 µM (inactive) | 0.386 µM (active) | 0.458 µM (active) | 0.359 µM (active) | 15.4 µM (inactive) | 2.26 µM (inactive) | 1.65 µM (inactive) | 4.59 µM (inactive) | 41.2 µM (inactive) | 1.11 µM (active) | 2.1 µM (inactive) | 0.662 µM (active) | 0.824 µM (active) | 9.59 µM (inactive) | 16.1 µM (inactive) | 0.0857 µM (active) | 0.495 µM (active) | 0.121 µM (active) | 1 µM (active)
14 | C[C@]12CC[C@H]3[C@@H](CC=C4C[C@@H](O)CC[C@@]43C)[C@@H]1C[C@H](N1CCOCC1)[C@@H]2O | 89.3 µM (inactive) | 40 µM (inactive) | > 100 µM (inactive) | > 100 µM (inactive) | > 100 µM (inactive) | > 100 µM (inactive) | > 100 µM (inactive) | > 100 µM (inactive) | > 100 µM (inactive) | 49.2 µM (inactive) | > 100 µM (inactive) | 81.5 µM (inactive) | > 100 µM (inactive) | > 100 µM (inactive) | > 100 µM (inactive) | > 100 µM (inactive) | > 100 µM (inactive) | > 100 µM (inactive) | > 100 µM (inactive)
